Experimental data as given in patent US10787462B2, “Heterocyclic compound” (TAKEDA PHARMACEUTICAL COMPANY LIMITED, priority 2015, dated 2020).

Each compound was assayed against T1, human RIPK1 (1-375) (Homo sapiens, UniProt Q13546) (assay: Human RIPK1 enzyme inhibitory effect (ADP-Glo Kinase Assay)). Conditions: read-out: human RIPK1 enzyme inhibitory effect at 10 μM (% inhibition), 10 μM test compound; well without enzyme = 100% inhibition.
T1 construct: human RIPK1 (1-375) gene; GST; made in house; host or cells: Sf-9 insect cells
T1 sequence (Q13546 1-375): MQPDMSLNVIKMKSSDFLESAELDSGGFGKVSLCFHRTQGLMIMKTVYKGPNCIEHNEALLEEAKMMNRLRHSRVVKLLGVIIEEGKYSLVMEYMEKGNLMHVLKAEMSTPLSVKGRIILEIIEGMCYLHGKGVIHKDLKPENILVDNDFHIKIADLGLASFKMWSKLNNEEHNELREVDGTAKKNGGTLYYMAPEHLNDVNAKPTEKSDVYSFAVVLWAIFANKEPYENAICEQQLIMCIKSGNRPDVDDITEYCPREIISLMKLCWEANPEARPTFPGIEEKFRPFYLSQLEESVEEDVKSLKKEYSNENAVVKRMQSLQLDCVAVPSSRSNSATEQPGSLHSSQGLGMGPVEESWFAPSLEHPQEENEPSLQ
Assay type: biochemical
Description: Experimental Example 1: Human RIPK1 Enzyme Inhibitory Effect
Enzyme was prepared by transducing human RIPK1 (1-375) gene to Sf-9 insect cells, and purifying using GST affinity column, and enzyme activity evaluation was performed using the enzyme. The enzyme was used after preservation at −70° C. The RIPK1 enzyme inhibitory activity of the test compound was measured using ADP-Glo™ Kinase Assay (Promega) according the following experiment methods. The test compound diluted with assay buffer (25 mM HEPES (pH 7.5), 10 mM MgCl2, 0.01% Tween-20, 2 mM DTT) was added to 384 well plate by each 2 μL. Next, RIPK1 enzyme solution diluted with the assay buffer was added thereto by each 2 μL, and the mixture was incubated at room temperature for 20 min. After the incubation, 0.6 mM ATP solution was added thereto by each 2 μL to initiate an enzyme reaction. The mixture was incubated at room temperature for 120 min, and ADP-Glo solution prepared according to Promega protocol was added to the 384 well plate by each 3 μL, and the reaction was performed at room temperature for 40 min. Then, Kinase-Detection solution was added to the 384 well plate by each 6 μL, and the reaction was performed at room temperature for 40 min. After the reaction, the luminescence intensity was measured by plate reader Envision (PerkinElmer).

Row | SMILES | inhibition at 10 µM [%]
1 | CN1C(=O)[C@@H](N2CCc3cn(Cc4ccccc4)nc3C2=O)COc2ccccc21 [Example 1, (3S)-3-(2-benzyl-7-oxo-2,4,5,7-tetrahydro-6H-pyrazolo[3,4-c]pyridin-6-yl)-5-methyl-2,3-dihydro-1,5-benzoxazepin-4(5H)-one] | 100
2 | CN1C(=O)[C@@H](N2CCCn3nc(Cc4ccccc4)nc3C2=O)COc2ccccc21 [Example 2, (3S)-3-(2-benzyl-9-oxo-6,7-dihydro-5H-[1,2,4]triazolo[1,5-a][1,4]diazepin-8(9H)-yl)-5-methyl-2,3-dihydro-1,5-benzoxazepin-4(5H)-one] | 91
3 | O=C1Nc2ccccc2CCC1N1CCc2cn(Cc3ccccc3)nc2C1=O (centres unmarked) [Example 3, 3-(2-benzyl-7-oxo-2,4,5,7-tetrahydro-6H-pyrazolo[3,4-c]pyridin-6-yl)-1,3,4,5-tetrahydro-2H-1-benzazepin-2-one] | 97
4 | O=C1Nc2ccccc2CCC1N1Cc2cn(Cc3ccccc3)nc2C1=O (centres unmarked) [Example 4, 3-(2-benzyl-6-oxo-2,6-dihydropyrrolo[3,4-c]pyrazol-5(4H)-yl)-1,3,4,5-tetrahydro-2H-1-benzazepin-2-one] | 80
5 | O=C1Nc2ccccc2CCC1n1ccc2cn(Cc3ccccc3)nc2c1=O (centres unmarked) [Example 5, 3-(2-benzyl-7-oxo-2,7-dihydro-6H-pyrazolo[3,4-c]pyridin-6-yl)-1,3,4,5-tetrahydro-2H-1-benzazepin-2-one] | 88
6 | CN1C(=O)C(n2ccc3cn(Cc4ccccc4)nc3c2=O)CCc2ccccc21 (centres unmarked) [Example 6, 3-(2-benzyl-7-oxo-2,7-dihydro-6H-pyrazolo[3,4-c]pyridin-6-yl)-1-methyl-1,3,4,5-tetrahydro-2H-1-benzazepin-2-one] | 96
7 | CN1C(=O)[C@@H](N2CCn3cc(Cc4ccccc4)nc3C2=O)COc2ccccc21 [Example 7, (3S)-3-(2-benzyl-8-oxo-5,6-dihydroimidazo[1,2-a]pyrazin-7(8H)-yl)-5-methyl-2,3-dihydro-1,5-benzoxazepin-4(5H)-one] | 91
8 | CN1C(=O)[C@@H](N2CCn3nc(Cc4ccccc4)nc3C2=O)COc2ccccc21 [Example 8, (3S)-3-(2-benzyl-8-oxo-5,6-dihydro[1,2,4]triazolo[1,5-a]pyrazin-7(8H)-yl)-5-methyl-2,3-dihydro-1,5-benzoxazepin-4(5H)-one] | 98
9 | CN1C(=O)[C@@H](N2CCc3cn(Cc4ccccc4F)nc3C2=O)COc2ccccc21 [Example 9, (3S)-3-(2-(2-fluorobenzyl)-7-oxo-2,4,5,7-tetrahydro-6H-pyrazolo[3,4-c]pyridin-6-yl)-5-methyl-2,3-dihydro-1,5-benzoxazepin-4(5H)-one] | 100
10 | CN1C(=O)[C@@H](N2CCc3c(nn(Cc4ccccc4)c3Br)C2=O)COc2ccccc21 [Example 10, (3S)-3-(2-benzyl-3-bromo-7-oxo-2,4,5,7-tetrahydro-6H-pyrazolo[3,4-c]pyridin-6-yl)-5-methyl-2,3-dihydro-1,5-benzoxazepin-4(5H)-one] | 98
11 | Cc1c2c(nn1Cc1ccccc1)C(=O)N([C@H]1COc3ccccc3N(C)C1=O)CC2 [Example 11, (3S)-3-(2-benzyl-3-methyl-7-oxo-2,4,5,7-tetrahydro-6H-pyrazolo[3,4-c]pyridin-6-yl)-5-methyl-2,3-dihydro-1,5-benzoxazepin-4(5H)-one] | 100
12 | CN1C(=O)[C@@H](N2CCc3c(nn(Cc4ccccc4)c3C#N)C2=O)COc2ccccc21 [Example 12, 2-benzyl-6-((3S)-5-methyl-4-oxo-2,3,4,5-tetrahydro-1,5-benzoxazepin-3-yl)-7-oxo-4,5,6,7-tetrahydro-2H-pyrazolo[3,4-c]pyridine-3-carbonitrile] | 100

Further lines, results first:

Row | inhibition at 10 µM [%] | SMILES
13 | 99 | CN1C(=O)[C@@H](N2CCc3cn(Cc4ccccc4)nc3C2=O)COc2cc(C#N)ccc21 [Example 13, (3S)-3-(2-benzyl-7-oxo-2,4,5,7-tetrahydro-6H-pyrazolo[3,4-c]pyridin-6-yl)-5-methyl-4-oxo-2,3,4,5-tetrahydro-1,5-benzoxazepine-8-carbonitrile]
14 | 100 | CN1C(=O)[C@@H](N2CCc3cn(Cc4ccccc4)nc3C2=O)COc2ccc(C#N)cc21 [Example 14, (3S)-3-(2-benzyl-7-oxo-2,4,5,7-tetrahydro-6H-pyrazolo[3,4-c]pyridin-6-yl)-5-methyl-4-oxo-2,3,4,5-tetrahydro-1,5-benzoxazepine-7-carbonitrile]
15 | 91 | O=C1Nc2ccccc2CCC1N1Cc2sc(Cc3ccccc3)nc2C1=O (centres unmarked) [Example 15, 3-(2-benzyl-4-oxo-4,6-dihydro-5H-pyrrolo[3,4-d][1,3]thiazol-5-yl)-1,3,4,5-tetrahydro-2H-1-benzazepin-2-one]
16 | 98 | CN1C(=O)[C@@H](N2CCc3sc(Cc4ccccc4)nc3C2=O)COc2ccccc21 [Example 16, (3S)-3-(2-benzyl-4-oxo-6,7-dihydro[1,3]thiazolo[4,5-c]pyridin-5(4H)-yl)-5-methyl-2,3-dihydro-1,5-benzoxazepin-4(5H)-one]
17 | 97 | CN1C(=O)[C@@H](N2CCc3ccc(Cc4ccccc4)nc3C2=O)COc2ccccc21 [Example 17, (3S)-3-(2-benzyl-8-oxo-5,8-dihydro-1,7-naphthyridin-7(6H)-yl)-5-methyl-2,3-dihydro-1,5-benzoxazepin-4(5H)-one]
18 | 72 | O=C1Nc2ccccc2CCC1N1CCn2nc(Cc3ccccc3)cc2C1=O (centres unmarked) [Example 18, 3-(2-benzyl-4-oxo-6,7-dihydropyrazolo[1,5-a]pyrazin-5(4H)-yl)-1,3,4,5-tetrahydro-2H-1-benzazepin-2-one]
19 | 99 | CN1C(=O)[C@@H](N2CCc3cn(Cc4ccccc4)nc3C2=O)CSc2ccccc21 [Example 19, (3R)-3-(2-benzyl-7-oxo-2,4,5,7-tetrahydro-6H-pyrazolo[3,4-c]pyridin-6-yl)-5-methyl-2,3-dihydro-1,5-benzothiazepin-4(5H)-one]
20 | 100 | CN1C(=O)[C@@H](N2CCc3cn(Cc4ccc(Cl)cc4)nc3C2=O)COc2ccccc21 [Example 20, (3S)-3-(2-(4-chlorobenzyl)-7-oxo-2,4,5,7-tetrahydro-6H-pyrazolo[3,4-c]pyridin-6-yl)-5-methyl-2,3-dihydro-1,5-benzoxazepin-4(5H)-one]
21 | 100 | CC(c1ccccc1)n1cc2c(n1)C(=O)N([C@H]1COc3ccccc3N(C)C1=O)CC2 (stereo partly drawn) [Example 21, (3S)-5-methyl-3-(7-oxo-2-(1-phenylethyl)-2,4,5,7-tetrahydro-6H-pyrazolo[3,4-c]pyridin-6-yl)-2,3-dihydro-1,5-benzoxazepin-4(5H)-one]
22 | 100 | Cc1ccccc1Cn1cc2c(n1)C(=O)N([C@H]1COc3ccccc3N(C)C1=O)CC2 [Example 22, (3S)-5-methyl-3-(2-(2-methylbenzyl)-7-oxo-2,4,5,7-tetrahydro-6 H-pyrazolo[3,4-c]pyridin-6-yl)-2,3-dihydro-1,5-benzoxazepin-4(5H)-one]
23 | 91 | CN1C(=O)[C@@H](N2CCc3cn(CCc4ccccc4)nc3C2=O)COc2ccccc21 [Example 23, (3S)-5-methyl-3-(7-oxo-2-(2-phenylethyl)-2,4,5,7-tetrahydro-6H-pyrazolo[3,4-c]pyridin-6-yl)-2,3-dihydro-1,5-benzoxazepin-4(5H)-one]
